Results on four compounds are retold here after patent publication US5859019A, “Methods for protecting against cardiac ischemia by administering adenosine A2a receptor antagonists” (priority 1997, dated 1999).

What all share (assay type): cell-based
In test [1] the test system is ventricular cells cultured from chick embryos. Description: Hypoxia-induced injury / preconditioning of cultured ventricular cells (% cells killed, CK released). The following applies: for Ability to replace preconditioning hypoxia (protection against injury by ninety-minute hypoxia; % cells killed, CK released): agent given for 5 min in place of preconditioning hypoxia, before 90-min hypoxia, adenosine 10 μM, R-PIA 10 μM; for Ability to replace preconditioning hypoxia (protection against injury by ninety-minute hypoxia; % cells killed, CK released) / Effect on protection by preconditioning hypoxia (% cells killed, CK released): CGS21680 1 μM; for Effect on protection by preconditioning hypoxia (% cells killed, CK released): agent present during five-minute preconditioning hypoxia, CSC 1 μM, 8-SPT 100 μM, isoproterenol 0.3 μM, forskolin 1 μM, BayK 8644 0.1 μM. The protocol:
Ventricular cells were cultured from chick embryos 14 days in ovo, according to a previously described procedure (20, 27). Cells were plated at a density of 400,000 cells per ml and cultivated in a humidified 5% CO2 -95% air mixture at 37° C. […] For preconditioning studies, the medium was changed to a HEPES-buffered medium containing (mM) 139 NaCl, 4.7 KCl, 0.5 MgCl2, 0.9 CaCl2, 5 HEPES (N-2-hydroxyethylpiperazine-N'-2-ethanesulfonic acid) and 2% fetal bovine serum, pH=7.4, 37° C. before exposing cells to the various conditions at 37° C. Control cells were maintained in the HEPES-buffered media under room air. Hypoxia was produced by placing the cells in a hypoxic incubator (NuAire) where O2 was replaced by N2. The % O2 was monitored by both an oxygen Fyrite Gas Analyzer (Bacharach) and an oxygen analyzer (Model OX630, Engineered Systems & Designs). Preconditioning was induced by exposing the cells to five minutes of hypoxia, termed preconditioning hypoxia, prior to a second ninety-minute hypoxia. Cells not subjected to preconditioning were exposed to ninety minutes of hypoxia only (nonpreconditioned cells). The extracellular pH was similarly maintained at 7.4 by HEPES in both preconditioned and nonpreconditioned cells. Determination of basal level of cell injury was made after parallel incubation of control cells under normal % O2. For preconditioned and nonpreconditioned cells, determination of cell injury was made at the end of the ninety-minute hypoxic period.
The extent of hypoxia-induced injury to the ventricular cell was quantitatively determined by the percentages of cells killed and by the amount of creatine kinase (CK) released into the media. To quantitate the % cells killed, cells were exposed to a trypsin-EDTA Hanks' balanced salt solution for 10 minutes for detachment after the various treatment, followed by centrifugation (300 × g for 10 minutes) and resuspension in culture media for counting in a hemocytometer. Only live cells sedimented and the cells counted represented those that survived (29). None of the sedimented cells subsequently counted included trypan blue. […] There was no protein or CK in the culture media following a second 300 × g centrifugation of resuspended cells previously treated with trypsin-EDTA. […] In contrast, the trypsin-EDTA media from cells exposed to 90 minutes of hypoxia contained substantial amount of proteins (0.15±0.03 mg, n=9) and CK activity (16±3 unit/mg protein, n=8). […] Because trypsin may cause further proteolysis of proteins and CK, the amount of protein and CK retained by the damaged cells in the trypsin-EDTA media may not accurately reflect those associated with the damaged cells. In support of the notion that exposure to 90 minutes of hypoxia caused significant cell injury and loss of membrane integrity, there was also marked release of LDH (hypoxia-exposed cells, 35.5±2.7, unit/mg, n=8, ±S.E. vs. control cells, 6.1±0.4 unit/mg, n=8) and proteins (hypoxia-exposed cells, 0.15±0.03 mg, n=8 vs. control cells, 0.034±0.01 mg, n=8) from the cells incubated under prolonged hypoxia. Thus, the cell viability assay separated out the hypoxia-damaged from the control normoxia-exposed cells. […] The amount of CK was measured as enzyme activity (unit/mg), and increases in CK activity above the control level were determined. The percentage of cells killed was calculated as the number of cells obtained from the control group (representing cells not subjected to any hypoxia or drug treatment) minus the number of cells from the treatment group divided by number of cells in control group multiplied by 100%.
To investigate the role of adenosine in mediating the preconditioning effect, the ventricular cells, instead of being exposed to the brief hypoxia, were incubated with adenosine (10 μM) for 5 minutes prior to the ninety minute hypoxia. In adenosine-treated cells, media were replaced with adenosine-free media for ten minutes prior to a ninety-minute hypoxic exposure. […]

For test [2] the test system is unchanged. Description: 45Ca uptake in cultured ventricular cells. Particulars: for Calcium influx into the cultured cells: isoproterenol 0.3 μM, forskolin 1 μM, BayK 8644 0.1 μM, data not shown. The protocol:
(§1) Determination of ^45 Ca uptake was made according to a modification of previously described method (20). Cultures were incubated with L-(3, 4, 5-^3 H, N)-leucine (152.2 Ci/mmol) for a 24 hour prior to ^45 Ca uptake. [^3 H] leucine incorporated into the cellular protein allowed normalization of ^45 Ca content to mg cell protein. After incubation with ^45 Ca-containing medium, cells were then washed free of ^45 Ca and solubilized for 2 hours with 1% sodium dodecyl sulfate and 10 mM sodium borate and the levels of ^3 H and ^45 Ca were determined. For all data comparing the effect of different agents on ^45 Ca uptake, one-way ANOVA analysis followed by group comparison with t-test was carried out at each time point of the ^45 Ca uptake. Cyclic AMP level was determined according to a previously described radioimmunoassay (27).

Test [3] has the same test system. The experiment in a line: Cyclic AMP level in cultured ventricular cells (radioimmunoassay). The following applies: Gallus gallus; isoproterenol 0.3 μM, forskolin 1 μM; n=6, ±S.E.; read-out: % increase in cAMP level. The protocol:
as §1
On the technique in general: Cyclic AMP is a second messenger, typically raised through Gs and lowered through Gi signalling.

On to `CCNC(=O)[C@H]1O[C@@H](n2cnc3c(N)nc(NCCc4ccc(CCC(=O)O)cc4)nc32)[C@H](O)[C@@H]1O` [CGS21680, 2-[4-(2-carboxyethyl)phenylethylamino]-5'-N-ethylcarboxiamidoadenosine], for which, in test [1], the “Ability to replace preconditioning hypoxia (protection against injury by ninety-minute hypoxia; % cells killed, CK released)” value is “could not” and the “Effect on protection by preconditioning hypoxia (% cells killed, CK released)” value (from here on “Effect … (% cells killed, CK released)”) is given as “attenuated the protection”. Moreover, in test [2] (after 90-second exposure to 45Ca-containing media, CGS21680 1 μM, control 4.2±0.1, ±S.D.), the 45Ca uptake was determined as 5.8 ± 0.2 nmol/mg. Also, the “45Ca uptake, CGS21680 plus nifedipine” value in test [2] (after 90-second exposure to 45Ca, CGS21680 1 μM plus nifedipine 1 μM, control 4.2±0.1, ±S.D.) was 4.4 ± 0.1 nmol/mg.
As for `C=C[C@@]1(C)CC(=O)[C@]2(O)[C@@]3(C)[C@@H](O)CCC(C)(C)[C@@H]3[C@H](O)[C@H](OC(C)=O)[C@@]2(C)O1` [forskolin], in test [1], the “Ability to replace preconditioning hypoxia (protection against injury by ninety-minute hypoxia; % cells killed, CK released)” value is reported as “Neither isoproterenol, forskolin nor BayK8644 had any effect on the level of protection”; the “Effect … (% cells killed, CK released)” value is “caused an increase in % cells killed and amount of CK released”. Further, the “Calcium influx into the cultured cells” value in test [2] is given as “induced increased calcium influx”. Further, the activation at 1 µM in test [3] was 54.8 ± 9.7%.
`CC(C)NCC(O)c1ccc(O)c(O)c1` (stereo not shown) [isoproterenol]: in test [1], the “Ability to replace preconditioning hypoxia (protection against injury by ninety-minute hypoxia; % cells killed, CK released)” value is on record as “Neither isoproterenol, forskolin nor BayK8644 had any effect on the level of protection”; the “Effect … (% cells killed, CK released)” value is “caused an increase in % cells killed and amount of CK released”. The “Calcium influx into the cultured cells” value in test [2] is recorded as “induced increased calcium influx”. Moreover, the activation at 0.3 µM in test [3] is 228 ± 31%.
Take `COC(=O)C1=C(C)NC(C)=C(C(=O)OC)C1c1ccccc1[N+](=O)[O-]` [nifedipine]: in test [1], the “Ability to replace preconditioning hypoxia (protection against injury by ninety-minute hypoxia; % cells killed, CK released)” value is recorded as “did not simulate preconditioning”. Moreover, the “Effect on attenuation of preconditioning by isoproterenol, forskolin and BayK 8644” value in test [1] (nifedipine 1 μM during preconditioning hypoxia) was “abolished”. Further, the “Effect on CGS21680-induced attenuation of preconditioning” value in test [1] (nifedipine 1 μM with CGS21680 during preconditioning hypoxia) was “abolished the CGS21680-induced attenuation of cardioprotection”. Besides, the “Effect on increase in calcium uptake by isoproterenol, forskolin and BayK 8644” value in test [2] (nifedipine) is recorded as “blocked the increase in calcium uptake”.
